Laboratory results reported in ChEMBL document CHEMBL3526058, “Investigating the enteroenteric recirculation of apixaban, a factor Xa inhibitor: administration of activated charcoal to bile duct-cannulated rats and dogs receiving an intravenous dose and use of drug transporter knockout rats” (Drug Metab Dispos, 2013).

Assays:
[1] = Mean residence time in wild-type 30 mins activated charcoal pre-treated bile duct-cannulated Sprague-Dawley rat at 2 mg/kg, iv followed by activated charcoal administration 5 to 180 mins post compound dosing; assay type: ADME, organism-based; set-up: dose 2 mg/kg, route intravenous; details: in vivo
[2] = Drug recovery in feces of 30 mins activated charcoal pre-treated bile duct-cannulated Sprague-Dawley rat at 2 mg/kg, iv followed by activated charcoal administration 5 to 180 mins post compound dosing measured up to 48 hrs; assay type: ADME, organism-based; set-up: dose 2 mg/kg, route intravenous; details: read-out: Drug recovery
[3] = Mean residence time in BCRP-knockout Sprague-Dawley rat at 2 mg/kg, iv; assay type: ADME, organism-based; set-up: dose 2 mg/kg, route intravenous; details: in vivo
Rattus norvegicus [4] = assay: Renal clearance in wild-type 30 mins activated charcoal pre-treated bile duct-cannulated Sprague-Dawley rat at 2 mg/kg, iv followed by activated charcoal administration 5 to 180 mins post compound dosing relative to total clearance; assay type: ADME, organism-based, Kidney; set-up: dose 2 mg/kg, route intravenous; details: in vivo
Rattus norvegicus [5] = assay: Intestinal clearance in wild-type bile duct-cannulated Sprague-Dawley rat at 2 mg/kg, iv; assay type: ADME, organism-based; set-up: dose 2 mg/kg, route intravenous; details: in vivo
Rattus norvegicus [6] = assay: Intestinal clearance in P-gp-knockout Sprague-Dawley rat at 2 mg/kg, iv relative to total clearance; assay type: ADME, organism-based; set-up: dose 2 mg/kg, route intravenous; details: in vivo
[7] = Drug recovery in feces of bile duct-cannulated Sprague-Dawley rat at 2 mg/kg, iv measured up to 24 hrs; assay type: ADME, organism-based; set-up: dose 2 mg/kg, route intravenous; details: read-out: Drug recovery
[8] = Clearance in P-gp-knockout Sprague-Dawley rat at 2 mg/kg, iv; assay type: ADME, organism-based; set-up: dose 2 mg/kg, route intravenous; details: in vivo
Canis familiaris [9] = assay: Intestinal clearance in bile duct-cannulated beagle dog at 1 mg/kg, iv administered as 5 mins infusion followed by activated charcoal administration 10 to 420 mins post compound dosing relative to total clearance; assay type: ADME, organism-based, Canis lupus familiaris; set-up: dose 1 mg/kg, route intravenous; details: in vivo
[10] = AUC (0 to infinity) in wild-type bile duct-cannulated Sprague-Dawley rat at 2 mg/kg, iv; assay type: ADME, organism-based; set-up: time infinity, dose 2 mg/kg, route intravenous; details: in vivo
[11] = Half life in bile duct-cannulated beagle dog at 1 mg/kg, iv administered as 5 mins infusion; assay type: ADME, organism-based, Canis lupus familiaris; set-up: dose 1 mg/kg, route intravenous; details: in vivo
[12] = Drug recovery in bile of bile duct-cannulated BCRP-knockout Sprague-Dawley rat at 2 mg/kg, iv measured up to 24 hrs; assay type: ADME, organism-based; set-up: dose 2 mg/kg, route intravenous; details: read-out: Drug recovery
[13] = Mean residence time in wild-type bile duct-cannulated Sprague-Dawley rat at 2 mg/kg, iv administered 0.125 hr post GF-120918 treatment; assay type: ADME, organism-based; set-up: dose 2 mg/kg, route intravenous; details: in vivo, with GF-120918
[14] = Drug recovery in urine of bile duct-cannulated BCRP-knockout Sprague-Dawley rat at 2 mg/kg, iv measured up to 24 hrs; assay type: ADME, organism-based; set-up: dose 2 mg/kg, route intravenous; details: read-out: Drug recovery
[15] = Drug recovery in feces of beagle dog at 5 mg/kg, po measured up to 72 hrs; assay type: ADME, organism-based, Canis lupus familiaris; set-up: dose 5 mg/kg, route oral; details: read-out: Drug recovery
[16] = Drug recovery in urine of beagle dog at 5 mg/kg, po measured up to 72 hrs; assay type: ADME, organism-based, Canis lupus familiaris; set-up: dose 5 mg/kg, route oral; details: read-out: Drug recovery
Rattus norvegicus [17] = assay: Intestinal clearance in wild-type bile duct-cannulated Sprague-Dawley rat at 2 mg/kg, iv relative to total clearance; assay type: ADME, organism-based; set-up: dose 2 mg/kg, route intravenous; details: in vivo
[18] = Drug recovery in urine of 30 mins activated charcoal pre-treated bile duct-cannulated Sprague-Dawley rat at 2 mg/kg, iv followed by activated charcoal administration 5 to 180 mins post compound dosing measured up to 48 hrs; assay type: ADME, organism-based; set-up: dose 2 mg/kg, route intravenous; details: read-out: Drug recovery
[19] = Drug recovery in bile of bile duct-cannulated Sprague-Dawley rat at 30 mg/kg, po measured up to 48 hrs; assay type: ADME, organism-based; set-up: dose 30 mg/kg, route oral; details: read-out: Drug recovery
[20] = Drug recovery in urine of bile duct-cannulated Sprague-Dawley rat at 2 mg/kg, iv administered 1 hr post GF-120918 treatment measured up to 48 hrs; assay type: ADME, organism-based; set-up: dose 2 mg/kg, route intravenous; details: with GF-120918, given 1 hr before the compound, read-out: Drug recovery
[21] = Drug recovery in urine of Sprague-Dawley rat at 2 mg/kg, iv measured up to 168 hrs; assay type: ADME, organism-based; set-up: dose 2 mg/kg, route intravenous; details: read-out: Drug recovery
[22] = Half life in P-gp-knockout Sprague-Dawley rat at 2 mg/kg, iv; assay type: ADME, organism-based; set-up: dose 2 mg/kg, route intravenous; details: in vivo
[23] = Renal clearance in wild-type bile duct-cannulated Sprague-Dawley rat at 2 mg/kg, iv administered 0.125 hr post GF-120918 treatment; assay type: ADME, organism-based, Kidney; set-up: dose 2 mg/kg, route intravenous; details: in vivo, with GF-120918
[24] = Drug recovery in urine of bile duct-cannulated beagle dog at 1 mg/kg, iv administered as 5 mins infusion followed by activated charcoal administration 10 to 420 mins post compound measured up to 72 hrs; assay type: ADME, organism-based, Canis lupus familiaris; set-up: dose 1 mg/kg, route intravenous; details: read-out: Drug recovery
Canis familiaris [25] = assay: Clearance in bile duct-cannulated beagle dog at 1 mg/kg, iv administered as 5 mins infusion; assay type: ADME, organism-based, Canis lupus familiaris; set-up: dose 1 mg/kg, route intravenous; details: in vivo
[26] = Drug recovery in bile of bile duct-cannulated beagle dog at 1 mg/kg, iv administered as 5 mins infusion followed by activated charcoal administration 10 to 420 mins post compound measured up to 72 hrs; assay type: ADME, organism-based, Canis lupus familiaris; set-up: dose 1 mg/kg, route intravenous; details: read-out: Drug recovery

## COc1ccc(-n2nc(C(N)=O)c3c2[14C](=O)N(c2ccc(N4CCCCC4=O)cc2)CC3)cc1
[1]
  MRT: 0.6 h
[2]
  dose excreted: 28.8%
[3]
  MRT: 1.4 h
Rattus norvegicus [4]
  CL: 39%
Rattus norvegicus [5]
  CL: 5 mL/min/kg
Rattus norvegicus [6]
  CL: 24%
[7]
  dose excreted at 24 h: 21.1%
[8]
  clearance: 13.3 mL/min/kg
Canis familiaris [9]
  CL: 62%
[10]
  AUC(0-inf): 1410 ng·h/mL
[11]
  half-life: 2.9 h
[12]
  dose excreted at 24 h: 12.7%
[13]
  MRT: 1.7 h
[14]
  dose excreted at 24 h: 35.5%
[15]
  dose excreted at 72 h: 73.7%
[16]
  dose excreted at 72 h: 8.8%
Rattus norvegicus [17]
  CL: 21%
[18]
  dose excreted: 40.7%
[19]
  dose excreted at 48 h: 2.6%
[20]
  dose excreted: 50.6%
[21]
  dose excreted at 168 h: 51.3%
[22]
  half-life: 1.1 h
[23]
  CL renal at 0.125 h: 5.83 mL/min/kg
[24]
  dose excreted: 8.1%
Canis familiaris [25]
  CL: 0.667 mL/min/kg
[26]
  dose excreted: 13.1%
